Assay results taken from patent publication US10363239B2, “Method for inhibiting growth of cancer cells” (Pain Therapeutics, Inc., priority 2013, dated 2019).
Like-named read-outs stand apart in the source and are kept apart here.

How the values were obtained:
mu opiate receptor (MOR) = test: MOR agonist activity using [35S]GTPγS binding assay in striatal membranes; type: biochemical
In short: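 Striatal membranes (200 μg) were preincubated 5 min at 30 °C in HEPES pH 7.5 with 100 mM NaCl, 1 mM MgCl2 and 0.5 nM [35S]GTPγS, then 5 min more with 0.1–10 μM compound. Gαo was immunoprecipitated and bound radioactivity counted by scintillation.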

[1] = molecular target: FLNA pentapeptide of SEQ ID NO: 1 (Bn-VAKGL) (Homo sapiens, UniProt P21333); test: FITC-NLX-based FLNA screening assay (inhibition of FITC-naloxone binding to Bn-VAKGL on streptavidin plates); details: 10 nM FITC-NLX
[2] = Series B, 0.1 μM compound, relative to DAMGO
[3] = Series B, 0.1 μM compound, [35S]GTPγS binding to Gαo, striatal membranes
[4] = Series B, 1 μM compound + 1 μM β-FNA
[5] = Series B, 1 μM compound + β-FNA, relative to DAMGO + BFNA
[6] = Series B, 1 μM compound, relative to DAMGO
[7] = Series B, 1 μM compound, [35S]GTPγS binding to Gαo, striatal membranes
[8] = read-out: Percent Binding Inhibition, FLNA-binding compound 0.01 μM
[9] = read-out: Percent Binding Inhibition, FLNA-binding compound 0.1 μM
[10] = read-out: Percent Binding Inhibition, FLNA-binding compound 1 μM
[11] = Series C-1, 0.1 μM compound, relative to DAMGO
[12] = Series C-1, 0.1 μM compound, [35S]GTPγS binding to Gαo, striatal membranes
[13] = Series C-1, 1 μM compound + 1 μM β-FNA
[14] = Series C-1, 1 μM compound + β-FNA, relative to DAMGO + BFNA
[15] = Series C-1, 1 μM compound, relative to DAMGO
[16] = Series C-1, 1 μM compound, [35S]GTPγS binding to Gαo, striatal membranes
[17] = FLNA-binding compound 0.1 μM, read-out: Percent Binding Inhibition
[18] = FLNA-binding compound 1 μM, read-out: Percent Binding Inhibition

Compound: CC1CCC(C(C)C)C(OCC(O)CN2CCc3ccccc32)C1 (stereo not drawn) [Compound A0065]
- MOR agonist activity ([35S]GTPγS binding), FLNA-Binding Compound as Agonist 0.1 μM (mu opiate receptor (MOR); 0.1 μM compound): 197.6%
- % DAMGO (0.1 μM) (mu opiate receptor (MOR); 0.1 μM compound relative to DAMGO): 126.6%
- MOR agonist activity ([35S]GTPγS binding), FLNA-Binding Compound as Agonist 1 μM (mu opiate receptor (MOR); 1 μM compound): 266.8%
- MOR agonist activity ([35S]GTPγS binding), FLNA-Binding Compound as Agonist 1 μM + BFNA (mu opiate receptor (MOR); 1 μM compound + 1 μM β-funaltrexamine): 44.9%
- % DAMGO + BFNA (mu opiate receptor (MOR); 1 μM compound + BFNA relative to DAMGO + BFNA): 112.5%
- % DAMGO (1 μM) (mu opiate receptor (MOR); 1 μM compound relative to DAMGO): 115.7%
- Percent Binding Inhibition ([1]; FLNA-binding compound 0.01 μM): 38.7%
- Percent Binding Inhibition ([1]; FLNA-binding compound 0.1 μM): 50.0%
- Percent Binding Inhibition ([1]; FLNA-binding compound 1 μM): 50.8%

Compound: COc1ccc(OC)c(CCC(=O)CC2c3c(cc4c(c3OC)OCO4)CC[N+]2(C)C)c1 (stereo not drawn) [Compound B0044]
- % DAMGO (0.1 μM) (mu opiate receptor (MOR); [2]): 49.4%
- MOR agonist activity, percent [35S]GTPγS binding at the stated compound concentration (mu opiate receptor (MOR); [3]): 87.3%
- MOR agonist activity, percent [35S]GTPγS binding at the stated compound concentration (mu opiate receptor (MOR); [4]): 134.6%
- % DAMGO + BFNA (mu opiate receptor (MOR); [5]): 511.8%
- % DAMGO (1 μM) (mu opiate receptor (MOR); [6]): 66.9%
- MOR agonist activity, percent [35S]GTPγS binding at the stated compound concentration (mu opiate receptor (MOR); [7]): 170.0%
- inhibition at 0.01 µM [1, 8]: 35.2%
- inhibition at 0.1 µM [1, 9]: 39.5%
- inhibition at 1 µM [1, 10]: 44.4%

Compound: COCOc1ccc(C(=O)CC2c3c(cc4c(c3OC)OCO4)CC[N+]2(C)C)cc1C (stereo not drawn) [Compound B0041]
- % DAMGO (0.1 μM) (mu opiate receptor (MOR); [2]): 39.3%
- MOR agonist activity, percent [35S]GTPγS binding at the stated compound concentration (mu opiate receptor (MOR); [3]): 61.6%
- MOR agonist activity, percent [35S]GTPγS binding at the stated compound concentration (mu opiate receptor (MOR); [4]): 41.9%
- % DAMGO + BFNA (mu opiate receptor (MOR); [5]): 128.5%
- % DAMGO (1 μM) (mu opiate receptor (MOR); [6]): 47.2%
- MOR agonist activity, percent [35S]GTPγS binding at the stated compound concentration (mu opiate receptor (MOR); [7]): 109.3%
- inhibition at 0.01 µM [1, 8]: 44%
- inhibition at 0.1 µM [1, 9]: 46.8%
- inhibition at 1 µM [1, 10]: 52.8%

Compound: O=C1CN(C2CCc3ccccc3C2)C2(CCN(S(=O)(=O)c3ccccc3)CC2)N1 (stereo not drawn) [C0136M(P5)]
- % DAMGO (0.1 μM) (mu opiate receptor (MOR); Series C-2, 0.1 μM compound, relative to DAMGO): 93.4%
- MOR agonist activity, percent [35S]GTPγS binding at the stated compound concentration (mu opiate receptor (MOR); Series C-2, 0.1 μM compound, [35S]GTPγS binding to Gαo, striatal membranes): 176.8%
- MOR agonist activity, percent [35S]GTPγS binding at the stated compound concentration (mu opiate receptor (MOR); Series C-2, 1 μM compound + 1 μM β-FNA): 74.5%
- % DAMGO + BFNA (mu opiate receptor (MOR); Series C-2, 1 μM compound + β-FNA, relative to DAMGO + BFNA): 153.6%
- % DAMGO (1 μM) (mu opiate receptor (MOR); Series C-2, 1 μM compound, relative to DAMGO): 95.6%
- MOR agonist activity, percent [35S]GTPγS binding at the stated compound concentration (mu opiate receptor (MOR); Series C-2, 1 μM compound, [35S]GTPγS binding to Gαo, striatal membranes): 237.3%
- inhibition at 0.01 µM [1, 8]: 46.7%
- inhibition at 0.1 µM [1, 9]: 55.2%
- inhibition at 1 µM [1, 10]: 58.2%

Compound: COc1cccc(OC)c1C(=O)CC1c2c(cc3c(c2OC)OCO3)CC[N+]1(C)C (stereo not drawn) [Compound B0023]
- % DAMGO (0.1 μM) (mu opiate receptor (MOR); [2]): 99.4%
- MOR agonist activity, percent [35S]GTPγS binding at the stated compound concentration (mu opiate receptor (MOR); [3]): 166.1%
- MOR agonist activity, percent [35S]GTPγS binding at the stated compound concentration (mu opiate receptor (MOR); [4]): 28.4%
- % DAMGO + BFNA (mu opiate receptor (MOR); [5]): 81.8%
- % DAMGO (1 μM) (mu opiate receptor (MOR); [6]): 100.1%
- MOR agonist activity, percent [35S]GTPγS binding at the stated compound concentration (mu opiate receptor (MOR); [7]): 245.3%
- inhibition at 0.01 µM [1, 8]: 28.5%
- inhibition at 0.1 µM [1, 9]: 37.8%
- inhibition at 1 µM [1, 10]: 46.4%

Compound: CC(=O)c1ccc(S(=O)(=O)N2CCC3(CC2)NC(=O)C(Cc2cnc[nH]2)N3S(=O)(=O)c2ccc(C(C)=O)cc2)cc1 (stereo not drawn) [Compound C0084M]
- % DAMGO (0.1 μM) (mu opiate receptor (MOR); [11]): 97.3%
- Concentration of FLNA-Binding Compound as Agonist 0.1 μM (mu opiate receptor (MOR); [12]): 163.1%
- Concentration of FLNA-Binding Compound as Agonist 1 μM + BFNA (mu opiate receptor (MOR); [13]): 133.2%
- % DAMGO + BFNA (mu opiate receptor (MOR); [14]): 280.4%
- % DAMGO (1 μM) (mu opiate receptor (MOR); [15]): 114.9%
- Concentration of FLNA-Binding Compound as Agonist 1 μM (mu opiate receptor (MOR); [16]): 255.5%
- inhibition at 0.01 µM [1, 8]: 47.2%
- inhibition at 0.1 µM [1, 9]: 53.7%
- inhibition at 1 µM [1, 10]: 55.9%

Compound: O=C(OCc1ccccc1)c1ccc(S(=O)(=O)N2CCC3(CC2)OCCN3S(=O)(=O)c2ccc(C(=O)OCc3ccccc3)cc2)cc1 [Compound C0042]
- % DAMGO (0.1 μM) (mu opiate receptor (MOR); [11]): 98.9%
- Concentration of FLNA-Binding Compound as Agonist 0.1 μM (mu opiate receptor (MOR); [12]): 167.1%
- Concentration of FLNA-Binding Compound as Agonist 1 μM + BFNA (mu opiate receptor (MOR); [13]): 110.6%
- % DAMGO + BFNA (mu opiate receptor (MOR); [14]): 666.3%
- % DAMGO (1 μM) (mu opiate receptor (MOR); [15]): 119.2%
- Concentration of FLNA-Binding Compound as Agonist 1 μM (mu opiate receptor (MOR); [16]): 260.9%
- inhibition at 0.01 µM ([1]; FLNA-binding compound 0.01 μM, read-out: Percent Binding Inhibition): 42.4%
- inhibition at 0.1 µM [1, 17]: 49.7%
- inhibition at 1 µM [1, 18]: 56.1%

Compound: CC(=O)Nc1ccc(S(=O)(=O)N2CCC3(CC2)OCCN3S(=O)(=O)c2ccc(NC(C)=O)cc2)cc1 [Compound C0013]
- % DAMGO (0.1 μM) (mu opiate receptor (MOR); [11]): 91.0%
- Concentration of FLNA-Binding Compound as Agonist 0.1 μM (mu opiate receptor (MOR); [12]): 156.6%
- Concentration of FLNA-Binding Compound as Agonist 1 μM + BFNA (mu opiate receptor (MOR); [13]): 39.6%
- % DAMGO + BFNA (mu opiate receptor (MOR); [14]): 61.8%
- % DAMGO (1 μM) (mu opiate receptor (MOR); [15]): 108.9%
- Concentration of FLNA-Binding Compound as Agonist 1 μM (mu opiate receptor (MOR); [16]): 301.2%
- inhibition at 0.1 µM [1, 17]: 42.4%
- inhibition at 1 µM [1, 18]: 49.1%
- inhibition at 0.01 µM [1, 8]: 39.6%
